Measured values from US11179424B2, “Hyaluronic acid production promoting agent” (Pharma Foods International Co., Ltd., priority 2015, dated 2021).

Assays:
[1] = system: mouse chondrogenic cell line ATDC5; assay: Cartilage matrix production by chondrogenic cells, Alcian blue (Test Example 6); type: cell-based; conditions: 500 μM, insulin 0.1 μg/mL, 14 days, FIG. 19
Experimental: The mouse chondrogenic cell line ATDC5 (RIKEN BRC No. RCB0565) was cultured until subconfluence at 37° C. in an atmosphere of 5 vol % CO2 and 95 vol % air in DMEM/F-12 medium supplemented with 5% (w/w) FBS, 1% (w/w) penicillin-streptomycin solution, 5 μg/mL transferrin, and 3×10^−8M sodium selenite. The cells were collected by trypsin treatment. The collected cells were suspended in fresh DMEM/F-12 medium with the same supplements as above to give a cell suspension (50×10^4 cells/mL). The cell suspension was spot-seeded at a volume of 20 μL in each well of a 24-well plate, and the cells were precultured at 37° C. in an atmosphere of 5 vol % CO2 and 95 vol % air for 3 hours. The medium in each well was replaced with fresh DMEM/F-12 medium containing the same supplements as above and the Phe-Hyp dipeptide (at a final concentration of 500 μM) and insulin (at a final concentration of 0.1 μg/mL), and the cells were cultured for 14 days. The cartilage matrix produced by the chondrogenic cells was stained with Alcian blue staining solution, the stained cartilage matrix was quantified with Image J (National Institutes of Health), and the results were evaluated. The amount of the cartilage matrix produced by the chondrogenic cells in the sample addition group was expressed in terms of a relative value, with the amount of the cartilage matrix in the no sample group taken as 100.

SOX9 mRNA in ATDC5 = assay: Cartilage differentiation-related gene expression in chondrogenic cells: SOX9 (Test Example 7); type: cell-based, mouse; conditions: 500 μM, insulin 0.1 μg/mL, 3 days, normalized to GAPDH, FIG. 20
Experimental: (§1) The mouse chondrogenic cell line ATDC5 (RIKEN BRC No. RCB0565) was cultured until subconfluence at 37° C. in an atmosphere of 5 vol % CO2 and 95 vol % air in DMEM/F-12 medium supplemented with 5% (w/w) FBS, 1% (w/w) penicillin-streptomycin solution, 5 μg/mL transferrin, and 3×10^−8 M sodium selenite. The cells were collected by trypsin treatment. The collected cells were suspended in fresh DMEM/F-12 medium with the same supplements as above to give a cell suspension (10×10^4 cells/mL). The cell suspension was seeded at a volume of 500 μL in each well of a 24-well plate, and the cells were precultured at 37° C. in an atmosphere of 5 vol % CO2 and 95 vol % air for 2 days. The medium in each well was replaced with fresh DMEM/F-12 medium containing the same supplements as above and the Phe-Hyp dipeptide (at a final concentration of 500 μM) and insulin (at a final concentration of 0.1 μg/mL), and the cells were cultured for 3 days. As a positive control, 10 μg/mL insulin was used. At end of culture, total RNA extraction and cDNA synthesis were performed, the relative mRNA expression levels of cartilage differentiation-related genes were quantified by real-time PCR and were normalized to the GAPDH mRNA expression level, and the results were evaluated. […]

Acan mRNA in ATDC5 = assay: Cartilage differentiation-related gene expression in chondrogenic cells: Acan (Test Example 7); type: cell-based, mouse; conditions: 500 μM, insulin 0.1 μg/mL, 3 days, normalized to GAPDH, FIG. 21
Experimental: as §1

Col X mRNA in ATDC5 = assay: Cartilage differentiation-related gene expression in chondrogenic cells: Col X (Test Example 7); type: cell-based, mouse; conditions: 500 μM, insulin 0.1 μg/mL, 3 days, normalized to GAPDH, FIG. 22
Experimental: as §1

has2 mRNA in ATDC5 = assay: Cartilage differentiation-related gene expression in chondrogenic cells: has2 (Test Example 7); type: cell-based, mouse; conditions: 500 μM, insulin 0.1 μg/mL, 3 days, normalized to GAPDH, FIG. 23
Experimental: as §1

[2] = system: ex vivo mouse knee joints; assay: Ex vivo hyaluronic acid production in knee joints of mice (Test Example 8); conditions: 1 mg/mL, one day incubation, ELISA, FIG. 24
Experimental: DMEM/F-12 medium supplemented with 1 mg/mL Phe-Hyp dipeptide, 5% (w/w) FBS, 1% (w/w) penicillin-streptomycin solution, 5 μg/mL transferrin, and 3×10^−8 M sodium selenite was added to each well of a 24-well plate at a volume of 1 mL per well. The femur and tibia were harvested from the right and left hind legs of ddY mice (female, retired). The synovial membrane was incised to expose the cartilage, and the bones were placed in each well so that only the joint was immersed in the medium. The bones were incubated at 37° C. in an atmosphere of 5 vol % CO2 and 95 vol % air for one day. At end of incubation, the supernatants were recovered and centrifuged at 1500×g at 4° C. for 30 minutes. The supernatants were recovered, the amount of hyaluronic acid was measured by ELISA and the results were evaluated. The amount of the hyaluronic acid in the sample addition group was expressed in terms of a relative value, with the amount of hyaluronic acid in the no sample group taken as 100.

**Q.** Which “cartilage matrix production by chondrogenic cells (Alcian blue)” value [1] does the source give for `N[C@@H](Cc1ccccc1)C(=O)N1CC(O)C[C@H]1C(=O)O` (stereo partly drawn) [Phe-Hyp dipeptide, phenylalanyl-4-hydroxyproline] here?
**A.** The value was “promoted cartilage matrix production”.

**Q.** What about the “SOX9 mRNA expression level” value (SOX9 mRNA in ATDC5) of the same compound?
**A.** Its value is “enhanced the expression”.

**Q.** And the “Acan mRNA expression level” value (Acan mRNA in ATDC5)?
**A.** Its value is “enhanced the expression”.

**Q.** And the “Col X mRNA expression level” value (Col X mRNA in ATDC5)?
**A.** The value was “enhanced the expression”.

**Q.** What about the “has2 mRNA expression level” value (has2 mRNA in ATDC5) of the same compound?
**A.** The value was “enhanced the expression”.

**Q.** What about the “amount of hyaluronic acid produced in ex vivo mouse knee joints” value [2] of the same compound?
**A.** Its value is “promoted ex vivo hyaluronic acid production”.
